The structures appear in SMILES notation.

The target in experiment [1] is T1, RORγt ligand-binding domain (RORγt-LBD) (Homo sapiens, UniProt P51449).
T1 construct: 20 nM recombinantly expressed RORγ-LBD fused to GST
T1 sequence (P51449 269-508 limits assumed): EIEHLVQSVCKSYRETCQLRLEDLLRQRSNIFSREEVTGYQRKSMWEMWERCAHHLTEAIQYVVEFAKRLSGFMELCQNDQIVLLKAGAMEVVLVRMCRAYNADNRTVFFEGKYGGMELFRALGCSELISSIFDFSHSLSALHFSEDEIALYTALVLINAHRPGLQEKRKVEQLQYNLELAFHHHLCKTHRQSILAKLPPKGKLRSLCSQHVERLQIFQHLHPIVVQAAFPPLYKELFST
The experiment can be described thus: Time-resolved FRET (TR-FRET) RORγt coactivator assay. The experiment is classed as biochemical. The note with it: GST-RORγ-LBD, biotinylated RIP140 peptide, 2 hours; read-out: IC50, coactivator displacement. The text has this: Time-resolved FRET (TR-FRET) RORγt coactivator assay was used to identify RORγ modulator compounds with ligand-dependent coactivator displacement. The assay uses a d2-labeled anti-GST antibody, synthetic N-terminally biotinylated peptide which is derived from nuclear receptor coactivator protein RIP140, and a RORγt ligand-binding domain (RORγt-LBD) that is tagged with glutathione-S-transferase (GST). The influence of compounds on the RORγ-peptide interaction relies on the binding dependent energy transfer from a donor to an acceptor fluorophor attached to the binding partner of interest. […] For reduction of background from compound fluorescence, TR-FRET method makes use of generic fluorophore labels and time resolved detection.
The assays were done in a final volume of 20 μl in a 384 well plate in a CHAPS buffer (2 mM CHAPS; 1 mM DTT, 2 mM EDTA; 0.1% BSA), containing 20 nM recombinantly expressed RORγ-LBD fused to GST, 30 nM N-terminally biotinylated peptide, 1 nM streptavidin-terbium conjugate and 20 nM d2 labeled-anti-GST. Test compounds were diluted using 10 mM stock solution. The range of the final compound concentrations used in this test was from 0.3 nM to 30 μM (logarithmic scale). DMSO content of the samples was kept at 1%. The assay was equilibrated for 2 hours in the dark at room temperature in 384 well plates (Falcon). The signal was detected by an Ultra384 reader (TECAN). […] Compounds that promote coactivator displacement induce a concentration-dependent decrease in time-resolved fluorescent signal. Data were collected and analyzed using GraphPad Prism software (GraphPad Software V5.02, San Diego California USA). IC50 in μM and Emax in % were reported for each compound.

The target of a further experiment is T2, human RORγt (Homo sapiens, UniProt P51449).
T2 construct: the full-length cDNA of human RORγt; expressed in transfected cells; host or cells: COS-7 (monkey kidney)
T2 sequence (P51449 1-497 isoform P51449-2): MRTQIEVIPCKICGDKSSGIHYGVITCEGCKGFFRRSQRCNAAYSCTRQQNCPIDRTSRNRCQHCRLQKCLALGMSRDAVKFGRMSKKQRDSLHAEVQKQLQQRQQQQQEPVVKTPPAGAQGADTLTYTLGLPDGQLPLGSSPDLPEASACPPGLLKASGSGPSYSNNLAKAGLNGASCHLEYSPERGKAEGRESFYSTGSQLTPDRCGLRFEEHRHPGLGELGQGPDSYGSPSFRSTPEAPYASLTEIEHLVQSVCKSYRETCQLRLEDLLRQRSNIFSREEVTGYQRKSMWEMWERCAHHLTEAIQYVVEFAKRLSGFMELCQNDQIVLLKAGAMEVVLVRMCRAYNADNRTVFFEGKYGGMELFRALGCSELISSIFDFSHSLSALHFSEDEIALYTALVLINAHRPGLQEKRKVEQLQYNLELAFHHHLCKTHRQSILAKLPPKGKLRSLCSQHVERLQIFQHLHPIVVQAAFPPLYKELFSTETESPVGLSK
The experiment can be described thus: RORE Luciferase/RORγt transactivation assay. The experiment is classed as cell-based. The note with it: COS-7 cells, human IL-17 promoter reporter + RORγt plasmid, 20 h; read-out: IC50, inhibition of RORγt activity (luciferase). How it is done: It is well known that RORγ binds to a conserved non-coding sequence (CNS) enhancer element in the IL-17 promoter.
Culture medium was changed every 2 days.
The 4.3 Kb human IL-17 promoter containing the RORγ-specific CNS enhancer element was PCR amplified from human genomic DNA and cloned into a pGL3-TKLuc2Cp reporter plasmid.
The luciferase reporter plasmid and the RORγt overexpression plasmid were transfected into COS-7 cell line using 4 μLJetPEITM/μg of DNA. Briefly, 150 ng of DNA (ration ½ between RORE-Tk Luc2Cp and cDNA RORγt or the empty vector for the negative control) was served to transfect adherent COS-7 cells in a […] culture flask, in complete medium (see cos-7 cell line culture).
Cells were then detached (using trypsin) and washed by centrifugation at 300 g for 10 minutes. Cell pellet was resuspended in serum free/phenol red free DMEM and seeded in 384 well plates at a density of 10000 cells/well and then incubated for 4h at 37° C.
Compounds were dissolved in 100% DMSO to obtain 10 mM stock solutions. For each compound, test concentrations were diluted in serum free/phenol red free DMEM using the Genesis Freedom 200™ (TECAN) and added to the cells to obtain a 0.3% DMSO final concentration (in a final volume of 40 μL per well).
The luciferase activity was then measured with 40 μL/well steady-Glo Luciferase assay system (Promega, Madison, WI) and after incubation at room temperature for 30 minutes. The luminescence was estimated using the Ultra384 reader (TECAN). Data were collected and analyzed using GraphPad Prism software (GraphPad Software V5.02, San Diego California USA). IC50 in μM and Emax in % were reported for each compound.

As for `Cc1ccc(C(NC(=O)Cc2cnc(N3CCC(C(=O)O)CC3)nc2)c2ccc(C)o2)c(N2CCCCC2)c1` (stereo not shown) [Cpd.9, 1-{5-[({[4-methyl-2-(piperidin-1-yl)phenyl](5-methylfuran-2-yl)methyl}carbamoyl)methyl]pyrimidin-2-yl}piperidine-4-carboxylic acid], the IC50 is less than 100 nM in experiment [1] and 1000 to 10000 nM on human RORγt.

Take `CC(=O)N1CCN(c2ncc(CC(=O)NC(c3ccc(C)o3)c3ccc(C)cc3N3CCCCC3)cn2)CC1` (stereo not shown) [Cpd.13, 2-[2-(4-acetylpiperazin-1-yl)pyrimidin-5-yl]-N-{[4-methyl-2-(piperidin-1-yl)phenyl](5-methylfuran-2-yl)methyl}acetamide]: the IC50 in experiment [1] is less than 100 nM; on human RORγt, 100 to 1000 nM.

For the compound `Cc1ccc(C(NC(=O)Cc2ccc(N3CCC(S(C)(=O)=O)CC3)nc2)c2ccc(C)o2)c(N2CCCCC2)c1` (stereo not shown) [Cpd.2, 2-[6-(4-methanesulfonylpiperidin-1-yl)pyridin-3-yl]-N-{[4-methyl-2-(piperidin-1-yl)phenyl](5-methylfuran-2-yl)methyl}acetamide], the IC50 in experiment [1] is less than 100 nM; at human RORγt, 100 to 1000 nM.

Take `CC(=O)C1CCN(c2ncc(CC(=O)NC(c3ccc(C)o3)c3ccc(C)cc3N3CCCCC3)cn2)CC1` (stereo not shown) [Cpd.8, 2-[2-(4-acetylpiperidin-1-yl)pyrimidin-5-yl]-N-{[4-methyl-2-(piperidin-1-yl)phenyl](5-methylfuran-2-yl)methyl}acetamide]: the IC50 (in experiment [1]; on human RORγt) was 100 to 1000 nM in each case.

`Cc1ccc(C(NC(=O)Cc2cnc(N3CCN(S(C)(=O)=O)CC3)nc2)c2ccc(C)o2)c(N2CCCCC2)c1` (stereo not shown) [Cpd.4, 2-[2-(4-methanesulfonylpiperazin-1-yl)pyrimidin-5-yl]-N-{[4-methyl-2-(piperidin-1-yl)phenyl](5-methylfuran-2-yl)methyl}acetamide]: the figures for the IC50 (in experiment [1]; on human RORγt) were less than 100 nM and 100 to 1000 nM, respectively.

Turning to `COC(=O)C1CCN(c2ncc(CC(=O)NC(c3ccc(C)o3)c3ccc(C)cc3N3CCCCC3)cn2)CC1` (stereo not shown) [Cpd.7, methyl 1-{5-[({[4-methyl-2-(piperidin-1-yl)phenyl](5-methylfuran-2-yl)methyl}carbamoyl)methyl]pyrimidin-2-yl}piperidine-4-carboxylate], the IC50 in experiment [1] lay in the range of 100 to 1000 nM; at human RORγt it was 1000 to 10000 nM.

As to `CC(=O)N1CCN(c2cccc(CC(=O)NC(c3ccc(C)o3)c3ccc(C)cc3N3CCCCC3)n2)CC1` (stereo not shown) [Cpd.12, 2-[6-(4-acetylpiperazin-1-yl)pyridin-2-yl]-N-{[4-methyl-2-(piperidin-1-yl)phenyl](5-methylfuran-2-yl)methyl}acetamide], the IC50 (in experiment [1]; at human RORγt) was less than 100 nM throughout.

`Cc1ccc(C(NC(=O)Cc2ccc(N3CCN(C(=O)OC(C)(C)C)CC3)nc2)c2ccc(C)o2)c(N2CCCCC2)c1` (stereo not shown) [Cpd.3, tert-butyl 4-{5-[({[4-methyl-2-(piperidin-1-yl)phenyl](5-methylfuran-2-yl)methyl}carbamoyl)methyl]pyridin-2-yl}piperazine-1-carboxylate]: the IC50 (in experiment [1]; on human RORγt) was 100 to 1000 nM in each case.

On to `Cc1ccc(C(NC(=O)Cc2cnc(N3CCCC(S(C)(=O)=O)C3)nc2)c2ccc(C)o2)c(N2CCCCC2)c1` (stereo not shown) [Cpd.17, 2-[2-(3-methanesulfonylpiperidin-1-yl)pyrimidin-5-yl]-N-{[4-methyl-2-(piperidin-1-yl)phenyl](5-methylfuran-2-yl)methyl}acetamide], for which the IC50 (in experiment [1]; on human RORγt) was less than 100 nM in each case.

In the case of `CC(=O)C1CCN(c2ncc(CC(=O)NC(c3ccc(C)o3)c3ccc(C)cc3C)cn2)CC1` (stereo not shown) [Cpd.6, 2-[2-(4-acetylpiperidin-1-yl)pyrimidin-5-yl]-N-[(2,4-dimethylphenyl)(5-methylfuran-2-yl)methyl]acetamide], the values for the IC50 (in experiment [1]; on human RORγt) were 100 to 1000 nM and 1000 to 10000 nM, respectively.

With `CC(=O)N1CCN(c2ncc(C3(C(=O)NC(c4ccc(C)o4)c4ccc(C)cc4N4CCCCC4)CC3)cn2)CC1` (stereo not shown) [Cpd.11, 1-[2-(4-acetylpiperazin-1-yl)pyrimidin-5-yl]-N-{[4-methyl-2-(piperidin-1-yl)phenyl](5-methylfuran-2-yl)methyl}cyclopropane-1-carboxamide], the IC50 (in experiment [1]; at human RORγt) was less than 100 nM throughout.

For the compound `CC(=O)N1CCN(c2cncc(CC(=O)NC(c3ccc(C)o3)c3ccc(C)cc3N3CCCCC3)c2)CC1` (stereo not shown) [Cpd.14, 2-[5-(4-acetylpiperazin-1-yl)pyridin-3-yl]-N-{[4-methyl-2-(piperidin-1-yl)phenyl](5-methylfuran-2-yl)methyl}acetamide], the results for the concentration for half-maximal inhibition (IC50) (in experiment [1]; on human RORγt) were less than 100 nM and 100 to 1000 nM, respectively.

For the compound `Cc1ccc(C(NC(=O)Cc2ccc(N3CCNCC3)nc2)c2ccc(C)o2)c(N2CCCCC2)c1` (stereo not shown) [Cpd.10, N-{[4-methyl-2-(piperidin-1-yl)phenyl](5-methylfuran-2-yl)methyl}-2-[6-(piperazin-1-yl)pyridin-3-yl]acetamide], the IC50 in experiment [1] is less than 100 nM; on human RORγt, 100 to 1000 nM.

`CC(=O)N1CCN(c2nccc(CC(=O)NC(c3ccc(C)o3)c3ccc(C)cc3N3CCCCC3)n2)CC1` (stereo not shown) [Cpd.15, 2-[2-(4-acetylpiperazin-1-yl)pyrimidin-4-yl]-N-{[4-methyl-2-(piperidin-1-yl)phenyl](5-methylfuran-2-yl)methyl}acetamide]: the IC50 in experiment [1] is less than 100 nM; at human RORγt it was 100 to 1000 nM.

Turning to `Cc1ccc(C(NC(=O)Cc2ccc(N3CCN(S(C)(=O)=O)CC3)nc2)c2ccc(C)o2)c(N2CCCCC2)c1` (stereo not shown) [Cpd.1, 2-[6-(4-methanesulfonylpiperazin-1-yl)pyridin-3-yl]-N-{[4-methyl-2-(piperidin-1-yl)phenyl](5-methylfuran-2-yl)methyl}acetamide], the values for the IC50 (in experiment [1]; on human RORγt) were less than 100 nM and 100 to 1000 nM, respectively.

`Cc1ccc(C(NC(=O)Cc2cnc(N3CCC(S(C)(=O)=O)CC3)nc2)c2ccc(C)o2)c(N2CCCCC2)c1` (stereo not shown) [Cpd.5, 2-[2-(4-methanesulfonylpiperidin-1-yl)pyrimidin-5-yl]-N-{[4-methyl-2-(piperidin-1-yl)phenyl](5-methylfuran-2-yl)methyl}acetamide]: the IC50 in experiment [1] was less than 100 nM; on human RORγt it was 100 to 1000 nM.

Turning to `Cc1ccc(C(NC(=O)Cc2cccc(N3CCN(C(=O)C(F)(F)F)CC3)n2)c2ccc(C)o2)c(N2CCCCC2)c1` (stereo not shown) [Cpd.16, N-{[4-methyl-2-(piperidin-1-yl)phenyl](5-methylfuran-2-yl)methyl}-2-{6-[4-(trifluoroacetyl)piperazin-1-yl]pyridin-2-yl}acetamide], the IC50 (in experiment [1]; on human RORγt) was 100 to 1000 nM each time.

(Values after patent US11974997B2, “RORgamma modulators and uses thereof” (Genfit, priority 2017, dated 2024).)
